The values that follow come from PMC6279743, “A small molecule ApoE4-targeted therapeutic candidate that normalizes sirtuin 1 levels and improves cognition in an Alzheimer’s disease mouse model” (Scientific Reports, 2018).

One may read the Tmax as the time at which the peak concentration occurs. What is called AUC is concentration integrated over time. Low readings indicate less exposure, high ones more exposure.

Like-named read-outs stand apart in the source and are kept apart here.

The test system of data set [1] is SirT2 levels in N2a-E4 cells. The experiment in a line: SirT2 sandwich ELISA in N2a-E4 cells. The settings on record: A03 at 5 or 50 μM vs DMSO. In kind it is cell-based, murine. On the technique in general: An ELISA detects its analyte on a solid surface through an enzyme-linked reagent.
A short description of data set [2]: Parallel Artificial Membrane Permeability Assay (PAMPA; IAM column). In kind it is in vitro ADME. Here is the method: We used L(+)tartaric acid to isolate the L-enantiomer salt and D(-) tartaric acid to isolate the D-enantiomer salt, followed by neutralization of the salt with NaOH and re-crystallization to obtain the enantiomers. Enantiomer abundance (Supplementary Fig. S4) was determined by HPLC using a Chiralpak IB column. Isopropanol (0.2% diethylamine)/hexanes was used for gradient elution with 5–50% isopropanol (0.2% diethylamine) for 11 min, a Chiralpak IB column, and with sample (1 μL, 1.25 mg/mL) injection, 220 nm wavelength detection, and a flow rate of 1 mL/min. […] The L-alanine analog co-elutes with enantiomer-1 while the D-alanine analog co-elutes with enantiomer-2. Analysis of the enantiomers and A03 in the Parallel Artificial Membrane Permeability Assay (PAMPA) was performed and is described in Supplementary Methods. […]
PAMPA. An IAM.PC.DD2 Regis Technologies analytical (10 cm x 4.6 mm) column wherein phospholipid is bonded on 10 μm, 300 Å, spherical aminopropyl silica and end capped with C10 and C3 amides was used to determine membrane permeability of A03, E1 and E2. An isocratic method was used with a mobile phase comprising acetonitrile:PBS (pH 5.6) equal to 35:65, an injection volume of 5 µL, and a flow rate of 1 mL/min. The parameters determined are Tr = retention time of compound; KIAM= (Tr-T0)/T0; T0= is the delay time of the column, determined by use of 100 µg/mL citric acid) and was T0= 1.24 min; and (KIAM/MW4)*10-(10). The molecular weight of all three compounds was 255.74 g/mol. […]
Supplementary Fig. S1. […] (a) Transient transfection with either
ApoE3 or E4 decreased SirT1 levels as compared to empty vector (Pc/DMSO), but the decrease was greater with […]

The nature of data set [3]: Pharmacokinetics after oral delivery in mice. Type of data set: in vivo. The conditions noted are these: oral 10 mg/kg. Here is the method:
All in vivo experiments described were carried out in strict accordance with good animal practice according to NIH recommendations. All procedures for animal use were approved by the Animal Research Committee (ARC) at UCLA and under an approved ARC protocol. Pharmacokinetic (PK) analysis[68]–[70] consisted of oral delivery of compounds (10 mg/Kg) to individual mice followed by euthanasia at 1, 2, 4, 6, and 8 hours post-dose by ketamine/xylazine over-anesthesia, blood collection by cardiac puncture, and transcardial saline perfusion. Whole blood was centrifuged at 5000 rpm for 10 min. in a 5 °C centrifuge to isolate plasma and the plasma stored at −20 °C before analysis. Whole brains were collected, dissected down the midline, snap frozen on dry ice, and stored at −80 °C before analysis. The levels of the compounds in both plasma and brain tissue were determined by a quantitative LC/MS/MS methodology at Integrated Analytical Solutions (IAS, Berkeley, CA). Plasma samples were precipitated with an acetonitrile: methanol (1:1) cocktail containing an internal standard. Brain samples were homogenized directly in ethyl acetate by the liquid-liquid method. The resulting supernatant was evaporated to dryness and subjected to LC/MS/MS analysis. The Tmax, Cmax, brain-to-plasma ratios and brain levels were then calculated using PK Solutions software (SummitPK).

The nature of data set [4]: Pharmacokinetics after subcutaneous (SQ) injection in mice. In kind it is in vivo.
The test system of data set [5] is APP cleavage products in E4FAD mice. In words: Second oral 56-day study, APP-derived cleavage products in hippocampus. Type of data set: in vivo. The settings on record: oral 56 days, vs vehicle. Here is the method:
(§1) E4FAD mice were 10–12 mo and NTg mice 7–9 mo at the start of the study.
(§2) Mice were euthanized and blood/tissues collected 2 hrs after dosing on Day 56 by the method described above for PK. Hip and FrCx were collected for analysis of SirT1, sAPPα, and Aβ1-42 levels by AlphaLISA. For Aβ1-42 the Perkin Elmer kit AL276C was used. Protein concentrations were determined using the Bradford protein assay. The sAPPα and sAPPβ AlphaLISAs were similar to the SirT1 AlphaLISA (see Supplementary Fig. S3) but the former uses anti-sAPPα antibody AF1168 and 2B3-biotinylated antibodies and the latter an anti-sAPPβ antibody (IBL Cat. #18957) and an anti-N-terminal APP antibody (R&D Systems AF1168) instead of anti-SirT1 antibodies. Brain tissue and plasma were sent to IAS for A03 level analysis.

The test system of data set [6] is E4FAD mice. The experiment in a line: Novel Object Recognition (NOR) in 56-day study. Type of data set: in vivo. The conditions noted are these: total time with both objects, vs E4FAD Veh. Here is the method:
as §1
All mice underwent NOR testing the last week of dosing. Mice were acclimated to a 30 × 40 cm arena for 15 minutes 24 hrs before acquisition. Individual mice underwent acquisition by exposure to two identical objects for 10 min. and then were returned to the home cage overnight. For the probe, individual mice were returned to the arena wherein one of the objects had been changed. Mice were allowed to explore the objects for 10 minutes. Both the acquisition and probe were recorded on tripod-mounted video cameras. The number of discreet interactions with each object (nose within 1 cm of the object) and time spent with each object were scored by personnel blind to the treatment and genotype of the mice; scores were spot-checked by a second scorer. The discrimination index (DI) was calculated by subtracting time spent (or number of interactions) with the familiar object (TF) from time spent (or number of interactions) with the novel object (TN), and then dividing that value by the sum of those two values [DI = (TN − TF)/(TN + TF)][73].

For data set [7], the system named is E4FAD mice. In words: Toxicity observation and body weights in 56-day study. Type of data set: in vivo.
Excerpt: as §1

A short description of data set [8]: Brain compound levels 2 hours after the last dose in efficacy studies. Type of data set: in vivo, mice. Here is the method: Mice were euthanized and blood/tissues collected 2 hrs after dosing on day 28 by the method described above for PK. Frontal and parietal cortices (FrCx and PtCx, respectively), as well as the remaining brain tissue, from individual mice were dissected, snap frozen on dry ice, and stored at −80 °C. Plasma samples and the brain tissue minus the FrCx and PtCx (the ‘rest’) from all compound-treated mice were sent to IAS for compound level analysis as described above.
Mice were euthanized and blood/tissues collected 2 hrs after dosing on Day 25 by the method described above for PK. FrCx, PtCx, and hippocampi (Hip) were collected from all mice for SirT1 and sAPPα level determination by AlphaLISA. Protein concentration was determined using a Bradford protein assay. Brain and plasma levels of A03 were determined at IAS.
as §2

In the case of `CC(N)C(=O)OC(C)(C)Cc1ccc(Cl)cc1` (stereo not shown) [A03, alaproclate], in data set [1], the “SirT2 (normalized to protein)” value was “not significantly altered”. The “retention time (Tr) in PAMPA” value in data set [2] (IAM.PC.DD2 column, acetonitrile:PBS (pH 5.6) 35:65) came out at 3.31. In data set [2] (KIAM = (Tr-T0)/T0, T0 = 1.24 min), this compound returned a KIAM of 1.67. Besides, the “(KIAM/MW^4) * 10^−(10)” value in data set [2] (MW 255.74 g/mol) is given as 3.90. Also, the time of peak concentration (Tmax) in data set [3] (mouse, brain, n = 1 per time point) was 1 h; in data set [4] (mouse, brain, sc, mice, SQ 10 mg/kg, n = 1) it was 2 h. In addition, the AUC in data set [3] (mouse, plasma, 1-8 hours) stood at 266 ng·h/mL; in data set [4] (mouse, plasma, subcutaneous, mice, SQ 10 mg/kg), 1520 ng·h/mL. In data set [3] (1-8 hours), this compound registered an AUC brain of 1336 ng·h/g. In addition, the “factor by which brain levels after SQ exceed those after oral delivery” value in data set [4] (10 mg/Kg SQ vs 10 mg/Kg oral) is recorded as 4 to 5. In data set [4] (mice, SQ 10 mg/kg, unit as printed in Fig. 4d legend), this compound came in with an AUC plasma of 1520 ng·h/mL. Further, the Cmax is approximately 2600 ng/g in data set [4] (mouse, brain, sc, mice, SQ 10 mg/kg, n = 1, read-out: Cmax in brain) and approximately 10 µM in data set [4] (mouse, brain, subcutaneous, mice, SQ 10 mg/Kg, read-out: Cmax in brain as molar concentration). Further, in data set [5], the “Aβ1-42 in the Hip” value is given as “lower than E4FAD Veh, but not significantly so”. Also, in data set [5], the “sAPPα in the Hip” value was “only slightly higher”. The “sAPPβ in the Hip” value in data set [5] is “not changed”. In the data set on E4FAD mice [6], the “Exploration time in NOR” value is reported as “similar”. For the same compound, in the data set on E4FAD mice [7] (56-day oral study), the Body weights entry is reported as “stayed the same”. Besides, the “Signs of toxicity by cage-side observation” value in the data set on E4FAD mice [7] (E4FAD mice, oral 56-day treatment) is “no signs of toxicity”. For the same compound, the “Brain level 2 hours after the last dose” value in data set [8] (25-day study, oral 40 mg/kg/day, n = 12) is listed as “above 2000 n/g”. The concentration at 2 h in data set [8] (E4FAD, mouse, brain, 56-day study, oral 40 mg/kg/day, n = 16, read-out: Brain level 2 hours after the last dose) was approximately 700 ng/g. In addition, in data set [8] (pilot study, SQ 10 mg/kg/day, 28 days, n = 8), the “Brain levels 2 hours after the last dose, E1 vs A03” value was “slightly higher”.
